Experimental data: publication PMC3125149, “SCYX-7158, an Orally-Active Benzoxaborole for the Treatment of Stage 2 Human African Trypanosomiasis” (PLoS Neglected Tropical Diseases, 2011)
Values after ≈ are worked out from the molar mass of the structure shown.

Legend:
[1] = test system: L929 mouse fibroblast cells; assay: Mammalian cell cytotoxicity; assay type: cell-based
Description: T. b. brucei was cultured in complete HMI-9 medium,[20] which contains 10% fetal bovine serum (FBS) (Invitrogen, Carlsbad, CA), 10% Serum Plus medium (SAFC Biosciences, Lenexa, KS), and 100 units/mL penicillin and 0.1 mg/mL streptomycin. The trypanosomes were propagated in T-25 vented cap flasks (Corning Inc., Lowell, MA) at 37°C and 5% CO2 with humidity. To ensure log growth phase, trypanosomes were sub-cultured at appropriate dilutions (typically 1∶100) every 2–3 days in fresh HMI-9 medium. T. b. rhodesiense parasites were grown in MEM medium with Earle's salts supplemented with 15% horse serum. For T. b. gambiense, the MEM medium was supplemented with 5% heat-inactivated fetal calf serum (FCS) and 15% human serum.[21] L929 mouse fibroblast cells (ATCC CCL1, American Type Culture Collection, Rockville, MD) were used to determine parasite versus mammalian cell selectivity. Cells were cultured in Dulbecco's Modified Eagle Medium (DMEM), supplemented with 10% FBS, L-glutamine and 100 units/mL penicillin and 0.1 mg/mL streptomycin. MDCKII-hMDR1 cells were generously provided by P. Borst at the Netherlands Kancer Institute. Cells were cultured in DMEM with Glutamax, 10% (v/v) FBS, and 100 units/mL penicillin and 0.1 mg/mL streptomycin. Cell monolayers were fed with cell culture media 24 h after seeding and used for permeability studies 3 days later. […]

[2] = test system: T. b. brucei, T. b. rhodesiense and T. b. gambiense strains; assay: Whole cell assays across representative strains (text summary of Table 1); assay type: cell-based; details: Trypanosoma brucei; 72 h incubation; range over strains of Table 1; read-out: IC50 values across parasite strains
Description: Compounds to be tested were serially diluted in DMSO and added to 96-well plates to give final concentrations ranging from 5 to 0.01 µg/mL. T. b. brucei parasites in the log phase of growth were diluted in HMI-9 media and added to each well for a final concentration of 1×10^4 parasites per well. For the sensitivity assays using T. b. rhodesiense and T. b. gambiense, pararasites were cultured in MEM supplemented with Baltz components (8), diluted in the aforementioned culture media, and added to each well at a density of 1×10^3 cells/well. The final concentration of DMSO was 0.5% and the total volume was 100 µL/well. After a 72 h incubation, resazurin (Sigma-Aldrich, St. Louis, MO) was added to each well [20 µL of 25 mg/100 mL stock in phosphate buffered saline (PBS)] and incubated for an additional 4–6 h.[22] To assess cell viability, fluorescence was quantified using an EnVision Multilabel Plate Reader (Perkin Elmer, Waltham, MA) at an excitation wavelength of 530 nm and emission of 590 nm. Triplicate data points were averaged to generate sigmoidal dose-response curves and determine IC50 values using XLfit curve fitting software from IDBS (Guilford, UK). The IC50 is defined as the amount of compound required to decrease parasite or cell viability by 50% compared to those grown in the absence of the test compound. […]

[3] = test system: T. b. brucei EATRO 110 strain; assay: Efficacy in the mouse model for acute HAT; assay type: in vivo
Description: For efficacy studies against acute infections, groups of 3–5 female Swiss Webster mice (Ace Animals, Boyertown, PA) were injected intraperitoneally (i.p.) with freshly drawn infected rat blood containing 2.5×10^5 trypanosomes (T. b. brucei EATRO 110 strain). The infection was allowed to progress for 24 h before treatment. Test compound was then given daily by bolus i.p. injection or oral gavage. Oxaborole compounds were formulated in 2% ethanol/5% dextrose and were given at a dose volume of 200 µL (containing 1.25 to 50 mg/kg) for a 25 g animal. Animals were monitored daily for signs of compound toxicity and clinical signs of trypanosomiasis for a period of 30 days. Mice were checked for parasitemia once per week by microscopic examination of smears prepared from the tail vein blood of animals. Animals remaining parasite free for more than 30 days beyond the end of the treatment period were considered cured. Control untreated animals typically succumbed to the infection within 4–5 days following i.p. inoculation with parasites.

Aqueous solubility = assay type: physicochemical; details: pH 7.4 PBS
Source text: Table 3 In vitro physicochemical and ADME properties of SCYX-7158. | column: Value

[4] = Brain tissue binding by rapid equilibrium dialysis; assay type: in vitro ADME; details: mouse brain tissue; independent of concentration
Description: Binding to human or mouse plasma proteins or mouse brain homogenate was determined by rapid equilibrium dialysis (RED) (Pierce, Rockford, IL) using a 48-well plate-based format according to the manufacturer's instructions. Briefly, test compound at the required concentrations was added to fresh human or mouse plasma (Bioreclamation, Liverpool, NY) or freshly prepared mouse brain homogenate. Duplicate aliquots of each sample were transferred into the sample chambers of the RED devices, and dialysis buffer (BupH PBS) was added to the buffer chambers. The plates were sealed and incubated at 37°C for 4 h. After dialysis, samples collected from the buffer and tissue chambers were treated with ice-cold methanol (3 volumes for plasma, 4 volumes for brain) to precipitate proteins. The treated samples were centrifuged for 10 min at 3×10^3 g at 15°C. The supernatants were assayed for test compound by LC-MS/MS. Calibration standards and quality control samples were prepared in matched matrix and assayed with samples. Values for unbound and bound fractions and mass balance were calculated. Concordance of binding for each batch of plasma was confirmed by assay of warfarin, imipramine and carbamezapine. Acceptance criterion for mass balance was 70–120%.

For CC1(C)OB(O)c2cc(NC(=O)c3ccc(F)cc3C(F)(F)F)ccc21 [SCYX-7158], the IC50 ([1]; Mouse L929 fibroblast, n = 4) was > 50 µg/mL, the “inhibition of cell proliferation” value ([1]; drug concentrations up to 50 µg/mL) was “no significant inhibition” and the IC50 [2] was 0.07 to 0.37 µg/mL (≈ 0.191 to 1.01 µM). The “% Cured” value ([3]; 1.25 mg/kg BID, 4 days, PO) was 0%, the “Avg. Days Parasite-Free” value ([3]; 1.25 mg/kg BID, 4 days, PO) was 8 days and the Cured/Total ([3]; 1.25 mg/kg BID, 4 days, PO) was 0/5. For the same compound, the “% Cured” value ([3]; 1.25 mg/kg QD, 4 days, PO) was 0%, the “Avg. Days Parasite-Free” value ([3]; 1.25 mg/kg QD, 4 days, PO) was 4.4 days and the Cured/Total ([3]; 1.25 mg/kg QD, 4 days, PO) was 0/5. For the same compound, the “% Cured” value ([3]; 2.5 mg/kg BID, 4 days, PO) was 100%, the “Avg. Days Parasite-Free” value ([3]; 2.5 mg/kg BID, 4 days, PO) was >30 days and the Cured/Total ([3]; 2.5 mg/kg BID, 4 days, PO) was 5/5. The “% Cured” value ([3]; 2.5 mg/kg QD, 4 days, PO) was 0%, the “Avg. Days Parasite-Free” value ([3]; 2.5 mg/kg QD, 4 days, PO) was 8.4 days and the Cured/Total ([3]; 2.5 mg/kg QD, 4 days, PO) was 0/5. The “% Cured” value ([3]; 5 mg/kg BID, 4 days, PO) was 100%, the “Avg. Days Parasite-Free” value ([3]; 5 mg/kg BID, 4 days, PO) was >30 days and the Cured/Total ([3]; 5 mg/kg BID, 4 days, PO) was 5/5. The “% Cured” value ([3]; 5 mg/kg QD, 1 day, IP) was 0%, the “Avg. Days Parasite-Free” value ([3]; 5 mg/kg QD, 1 day, IP) was 6 days and the Cured/Total ([3]; 5 mg/kg QD, 1 day, IP) was 0/3. For the same compound, the “% Cured” value ([3]; 5 mg/kg QD, 4 days, PO) was 100%, the “Avg. Days Parasite-Free” value ([3]; 5 mg/kg QD, 4 days, PO) was >30 days and the Cured/Total ([3]; 5 mg/kg QD, 4 days, PO) was 5/5. The “% Cured” value ([3]; 10 mg/kg BID, 4 days, PO) was 100%, the “Avg. Days Parasite-Free” value ([3]; 10 mg/kg BID, 4 days, PO) was >30 days and the Cured/Total ([3]; 10 mg/kg BID, 4 days, PO) was 5/5. For the same compound, the “% Cured” value ([3]; 10 mg/kg QD, 1 day, IP) was 0%, the “Avg. Days Parasite-Free” value ([3]; 10 mg/kg QD, 1 day, IP) was 9.3 days and the Cured/Total ([3]; 10 mg/kg QD, 1 day, IP) was 0/3. The “% Cured” value ([3]; 10 mg/kg QD, 4 days, PO) was 100%, the “Avg. Days Parasite-Free” value ([3]; 10 mg/kg QD, 4 days, PO) was >30 days and the Cured/Total ([3]; 10 mg/kg QD, 4 days, PO) was 5/5. The “% Cured” value ([3]; 25 mg/kg QD, 1 day, IP) was 100%, the “Avg. Days Parasite-Free” value ([3]; 25 mg/kg QD, 1 day, IP) was >30 days and the Cured/Total ([3]; 25 mg/kg QD, 1 day, IP) was 3/3. The “% Cured” value ([3]; 25 mg/kg QD, 1 day, PO) was 33%, the “Avg. Days Parasite-Free” value ([3]; 25 mg/kg QD, 1 day, PO) was 8.3 days and the Cured/Total ([3]; 25 mg/kg QD, 1 day, PO) was 1/3. It also gave a solubility (Aqueous solubility) of 25 µM (≈ 9.18 µg/mL) and a fubrain [4] of ~5%.
